US20250171495A1, “MUTLI-TARGETED SERINE PROTEASE INHIBITORS FOR TREATMENT OF CANCER AND VIRAL INFECTION” (Washington University, priority 2023, published 2025)
Like-named read-outs stand apart in the source and are kept apart here.

Tests used:
Assay type in all cases: biochemical
matriptase = target: T1, matriptase (Homo sapiens, UniProt Q9Y5Y6); assay: Fluorogenic kinetic enzyme inhibitor assay, matriptase
T1 construct: purchased R&D Systems 3946-SEB-010
T1 sequence (Q9Y5Y6 615-855 limits assumed): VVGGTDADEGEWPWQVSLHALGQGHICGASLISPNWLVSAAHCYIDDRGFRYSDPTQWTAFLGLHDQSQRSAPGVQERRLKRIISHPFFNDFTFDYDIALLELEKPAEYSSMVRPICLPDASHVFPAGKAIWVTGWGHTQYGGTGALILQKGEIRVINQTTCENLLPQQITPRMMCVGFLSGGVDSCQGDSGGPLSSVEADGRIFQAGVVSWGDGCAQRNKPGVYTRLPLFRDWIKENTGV

hepsin = target: T2, hepsin (Homo sapiens, UniProt P05981); assay: Fluorogenic kinetic enzyme inhibitor assay, hepsin
T2 construct: purchased R&D Systems 4776-SE-010
T2 sequence (P05981 163-417 limits assumed): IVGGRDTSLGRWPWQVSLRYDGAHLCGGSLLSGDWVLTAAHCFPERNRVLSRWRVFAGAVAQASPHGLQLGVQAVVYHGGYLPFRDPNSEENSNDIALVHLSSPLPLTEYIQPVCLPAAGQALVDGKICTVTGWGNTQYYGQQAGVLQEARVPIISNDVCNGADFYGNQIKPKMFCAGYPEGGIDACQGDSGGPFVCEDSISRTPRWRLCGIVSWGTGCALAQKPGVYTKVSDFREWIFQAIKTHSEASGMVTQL
T2 sequence (P05981 1-162 partner limits assumed): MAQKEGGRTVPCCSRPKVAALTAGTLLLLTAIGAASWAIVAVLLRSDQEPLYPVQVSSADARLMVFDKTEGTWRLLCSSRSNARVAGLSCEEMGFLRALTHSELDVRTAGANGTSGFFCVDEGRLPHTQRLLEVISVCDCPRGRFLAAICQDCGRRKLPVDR

HGFA = target: T3, HGFA (Homo sapiens, UniProt Q04756); assay: Fluorogenic kinetic enzyme inhibitor assay, HGFA
T3 construct: purchased R&D Systems 1514-SE-010
T3 sequence (Q04756 408-655 limits assumed): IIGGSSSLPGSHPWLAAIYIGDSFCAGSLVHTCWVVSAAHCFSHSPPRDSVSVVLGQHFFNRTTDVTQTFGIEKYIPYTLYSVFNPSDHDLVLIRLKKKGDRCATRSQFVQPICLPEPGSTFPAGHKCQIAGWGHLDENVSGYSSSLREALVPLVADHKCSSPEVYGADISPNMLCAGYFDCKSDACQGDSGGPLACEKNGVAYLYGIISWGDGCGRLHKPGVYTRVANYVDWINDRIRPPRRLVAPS
T3 sequence (Q04756 373-407 partner limits assumed): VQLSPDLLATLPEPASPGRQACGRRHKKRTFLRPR

Factor Xa = target: T4, Factor Xa (Homo sapiens, UniProt P00742); assay: Fluorogenic assay, Factor Xa; conditions: read-out: Factor Xa IC50
T4 construct: TMPRSS2; Matriptase; Hepsin; HGFA; Thrombin; Factor Xa
T4 sequence (P00742 235-488 limits assumed): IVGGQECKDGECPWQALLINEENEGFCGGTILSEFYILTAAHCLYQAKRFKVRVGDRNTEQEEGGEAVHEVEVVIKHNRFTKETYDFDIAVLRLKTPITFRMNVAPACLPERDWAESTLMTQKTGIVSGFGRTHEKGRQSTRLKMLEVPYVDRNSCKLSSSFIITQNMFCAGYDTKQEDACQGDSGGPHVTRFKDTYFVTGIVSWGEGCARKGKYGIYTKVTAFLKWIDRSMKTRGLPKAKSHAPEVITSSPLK
T4 sequence (P00742 41-179 partner limits assumed): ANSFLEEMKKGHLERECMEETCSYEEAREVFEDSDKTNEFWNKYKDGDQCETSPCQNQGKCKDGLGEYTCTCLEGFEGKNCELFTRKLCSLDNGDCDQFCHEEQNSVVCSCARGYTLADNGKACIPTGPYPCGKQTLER

TMPRSS2 = TMPRSS2 (Homo sapiens, UniProt O15393); assay: Fluorogenic kinetic enzyme inhibitor assay, TMPRSS2; design: purchased Cusabio Technology CSB-YP023924HU; conditions: read-out: TMPRSS2 IC50
TMPRSS2, sequence (O15393 106-492 limits assumed): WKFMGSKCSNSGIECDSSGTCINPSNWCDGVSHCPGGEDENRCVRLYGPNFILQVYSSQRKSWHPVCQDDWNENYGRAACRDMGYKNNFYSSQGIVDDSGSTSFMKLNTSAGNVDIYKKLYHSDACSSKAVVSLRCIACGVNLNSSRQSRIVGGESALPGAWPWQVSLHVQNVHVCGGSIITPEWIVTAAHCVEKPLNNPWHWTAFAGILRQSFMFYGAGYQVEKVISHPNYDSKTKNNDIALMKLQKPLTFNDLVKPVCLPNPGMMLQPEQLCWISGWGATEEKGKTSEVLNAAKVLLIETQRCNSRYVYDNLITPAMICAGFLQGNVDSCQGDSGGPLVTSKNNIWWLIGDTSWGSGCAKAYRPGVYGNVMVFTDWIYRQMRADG

[1] = 30 min incubation, Boc-QLR-AMC at Km, read-out: HGFA IC50
[2] = 30 min incubation, Boc-QAR-AMC at Km
[3] = 30 min incubation, Boc-QAR-AMC at Km, read-out: Hepsin IC50

Compound	IC50 (matriptase; read-out: Matriptase IC50) [nM]	IC50 (hepsin; read-out: Hepsin IC50) [nM]	IC50 (HGFA; read-out: HGFA IC50) [nM]	IC50 (Factor Xa) [nM]	IC50 (TMPRSS2) [nM]	IC50 (matriptase) [nM]	other results
CCC(C)[C@H](NC(C)=O)C(=O)N[C@@H](CCC(N)=O)C(=O)N[C@@H](Cc1ccccc1)C(=O)N[C@@H](CCCNC(=N)N)C(=O)c1nc2ccccc2s1 (stereo partly drawn) [MM3116, N-[(S)-1-[N-(S)-1-[(1,3-benzothiazol-2-yl)carbonyl]-4-guanidinobutylcarbamoyl]-2-phenylethyl](S)-2-[(2S)-2-acetylamino-3-methylvalerylamino]glutaramide]	0.92	0.14	30	792	1.73	–	–
CC(=O)NCC(=O)N[C@@H](CCC(N)=O)C(=O)N[C@@H](Cc1ccccc1)C(=O)N[C@@H](CCCNC(=N)N)C(=O)c1nc2ccccc2s1 [MM3122, N-[(S)-1-[N-(S)-1-[(1,3-benzothiazol-2-yl)carbonyl]-4-guanidinobutylcarbamoyl]-2-phenylethyl](S)-2-[(acetylaminomethyl)carbonylamino]glutaramide]	0.314	0.194	–	700	0.03	–	IC50 (HGFA): 32.5 nM
CC(=O)N1CCC[C@H]1C(=O)N[C@@H](CCC(N)=O)C(=O)N[C@@H](Cc1ccccc1)C(=O)N[C@@H](CCCNC(=N)N)C(=O)c1nc2ccccc2s1 [MM3123, N-[(S)-1-[N-(S)-1-[(1,3-benzothiazol-2-yl)carbonyl]-4-guanidinobutylcarbamoyl]-2-phenylethyl](S)-2-[(S)-1-acetyl-2-pyrrolidinylcarbonylamino] glutaramide]	0.316	–	75	199	0.06	–	IC50 (hepsin): 0.135 nM
CC(=O)N[C@@H](CCC(N)=O)C(=O)N[C@@H](Cc1ccccc1)C(=O)N[C@@H](CCCNC(=N)N)C(=O)c1nc2ccccc2s1 [MM3144, N-[(S)-1-[N-(S)-1-[(1,3-benzothiazol-2-yl)carbonyl]-4-guanidinobutylcarbamoyl]-2-phenylethyl](S)-2-acetylaminoglutaramide]	–	–	–	4.5	–	–	IC50 (HGFA; [1]): 14 nM
CCC(C)[C@H](NC(C)=O)C(=O)N[C@@H](CCC(=O)O)C(=O)N[C@@H](Cc1ccccc1)C(=O)N[C@@H](CCCNC(=N)N)C(=O)c1nc2ccccc2s1 (stereo partly drawn) [MM4037-2, (S)-4-[(2S)-2-acetylamino-3-methylvalerylamino]-4-[N-(S)-1-[N-(S)-1-[(1,3-benzothiazol-2-yl)carbonyl]-4-guanidinobutylcarbamoyl]-2-phenylethylcarbamoyl]butyric acid]	–	0.35	276	–	0.109	2.42	–
CC(=O)N[C@@H](Cc1c[nH]c2ccccc12)C(=O)N[C@@H](Cc1ccccc1)C(=O)N[C@@H](CCCNC(=N)N)C(=O)c1nc2ccc(C(=O)O)cc2s1 [PK-1-103, 2-[(S)-2-[(S)-2-[(S)-2-acetylamino-3-(3-indolyl)propionylamino]-3-phenylpropionylamino]-5-guanidinovaleryl]-1,3-benzothiazole-6-carboxylic acid]	49.1	2.08	235	–	0.223	–	–
CC(=O)N[C@@H](Cc1c[nH]c2ccccc12)C(=O)N[C@@H](CC(C)C)C(=O)N[C@@H](CCCNC(=N)N)C(=O)c1nc2ccc(C(=O)O)cc2s1 [PK-1-105, 2-[(S)-2-[(S)-2-[(S)-2-acetylamino-3-(3-indolyl)propionylamino]-4-methylvalerylamino]-5-guanidinovaleryl]-1,3-benzothiazole-6-carboxylic acid]	144	0.362	98.3	–	1.45	–	–
CC(=O)N[C@H]1Cc2ccc(cc2)OC/C=C\CNC(=O)CC[C@@H](C(=O)N[C@@H](CCCNC(=N)N)C(=O)c2nc3ccccc3s2)NC(=O)[C@H](CC(C)C)NC1=O [VD4018, N-[(S)-1-[(1,3-benzothiazol-2-yl)carbonyl]-4-guanidinobutyl]-(4Z,11S,14S,17S)-17-acetylamino-14-isobutyl-8,13,16-trioxo-2-oxa-7,12,15-triazabicyclo[17.2.2]tricosa-1(21),4,19,22-tetraene-11-carboxamide]	–	–	–	12400	–	–	IC50 (HGFA; [1]): 6500 nM; IC50 (TMPRSS2; [2]): 2.48 nM
CC(=O)N[C@H]1Cc2ccc(cc2)OC/C=C\CNC(=O)C[C@@H](C(=O)N[C@@H](CCCNC(=N)N)C(=O)c2nc3ccccc3s2)NC(=O)[C@H](CC(C)C)NC1=O [VD4054, N-[(S)-1-[(1,3-benzothiazol-2-yl)carbonyl]-4-guanidinobutyl]-(4Z,10S,13S,16S)-16-acetylamino-13-isobutyl-8,12,15-trioxo-2-oxa-7,11,14-triazabicyclo[16.2.2]docosa-1(20),4,18,21-tetraene-10-carboxamide]	44	–	> 20000	3180	21.6	–	IC50 (hepsin; [3]): 0.99 nM
CC(=O)N[C@H]1Cc2ccc(cc2)OCCCC[C@@H](C(=O)N[C@@H](CCCNC(=N)N)C(=O)c2nc3ccccc3s2)NC(=O)[C@@H](Cc2c[nH]c3ccccc23)NC1=O [VD4162B, N-[(S)-1-[(1,3-benzothiazol-2-yl)carbonyl]-4-guanidinobutyl]-(7S,10R,13S)-13-acetylamino-10-[(3-indolyl)methyl]-9,12-dioxo-2-oxa-8,11-diazabicyclo[13.2.2]nonadeca-1(17),15,18-triene-7-carboxamide]	–	–	–	–	–	–	IC50 (matriptase; 30 min incubation, Boc-QAR-AMC at Km, read-out: Matriptase IC50): 2.88 nM; IC50 (hepsin; [3]): 0.538 nM; IC50 (HGFA): 3.35 nM; IC50 (TMPRSS2; [2]): 4.75 nM
CC(=O)N[C@H]1Cc2ccc(cc2)Oc2cccc(c2)C[C@@H](C(=O)N[C@H](CCCNC(=N)N)C(=O)c2nc3ccccc3s2)NC(=O)[C@H](CC(C)C)NC1=O [VD5064A, N-{(R)-1-[(1,3-benzothiazol-2-yl)carbonyl]-4-guanidinobutyl}-(9S,12S,15S)-15-acetylamino-12-isobutyl-11,14-dioxo-2-oxa-10,13-diazatricyclo[15.2.2.1^3,^7]docosa-1(19),3,5,7(22),17,20-hexaene-9-carboxamide]	–	2.6	550	–	261	680	–
CC(=O)N[C@H]1Cc2ccc(cc2)Oc2ccc(cc2)C[C@@H](C(=O)N[C@H](CCCNC(=N)N)C(=O)c2nc3ccccc3s2)NC(=O)[C@H](CC(C)C)NC1=O [VD5076A, N-[(R)-1-[(1,3-benzothiazol-2-yl)carbonyl]-4-guanidinobutyl]-(8S,11S,14S)-14-acetylamino-11-isobutyl-10,13-dioxo-2-oxa-9,12-diazatricyclo[14.2.2.2^3,^6]docosa-1(18),3,5,16,19,21-hexaene-8-carboxamide]	–	55.3	2900	–	489	2370	–
CC(=O)N[C@H]1Cc2cccc(c2)Oc2ccc(cc2)C[C@@H](C(=O)N[C@H](CCCNC(=N)N)C(=O)c2nc3ccccc3s2)NC(=O)[C@H](CC(C)C)NC1=O [VD5123A, N-{(R)-1-[(1,3-benzothiazol-2-yl)carbonyl]-4-guanidinobutyl}-(9S,12S,15S)-9-acetylamino-12-isobutyl-10,13-dioxo-2-oxa-11,14-diazatricyclo [15.2.2.1^3,^7]docosa-1(19),3(22),4,6,17,20-hexaene-15-carboxamide]	–	146	17300	–	1.78	478	–
CC(=O)N[C@H]1Cc2cccc(c2)Oc2ccc(cc2)C[C@@H](C(=O)N[C@@H](CCCNC(=N)N)C(=O)c2nc3ccccc3s2)NC(=O)[C@H](CC(C)C)NC1=O [VD5123B, N-[(S)-1-[(1,3-benzothiazol-2-yl)carbonyl]-4-guanidinobutyl]-(9S,12S,15S)-9-acetylamino-12-isobutyl-10,13-dioxo-2-oxa-11,14-diazatricyclo[15.2.2.1^3,^7] docosa-1(19),3,5,7(22), 17,20-hexaene-15-carboxamide]	140	–	–	–	15.2	–	IC50 (hepsin; [3]): 36.9 nM; IC50 (HGFA; [1]): 3980 nM
CC(=O)N[C@@H](CO)C(=O)N[C@@H](CCC(N)=O)C(=O)N[C@@H](CC(C)C)C(=O)N[C@@H](CCCNC(=N)N)C(=O)c1nccs1 [ZFH6138, N-[(S)-3-methyl-1-[N-(S)-4-guanidino-1-[(1,3-thiazol-2-yl)carbonyl]butylcarbamoyl]butyl](S)-2-[(S)-2-acetylamino-3-hydroxypropionylamino]glutaramide]	–	0.68	–	–	1.54	18	IC50 (HGFA): 364 nM
CC(=O)N[C@@H](CC(C)C)C(=O)N[C@@H](CC(C)C)C(=O)N[C@@H](CCCNC(=N)N)C(=O)c1nccs1 [ZFH6201-1, N-[(S)-4-guanidino-1-[(1,3-thiazol-2-yl)carbonyl]butyl](S)-2-[(S)-2-acetylamino-4-methylvalerylamino]-4-methylvaleramide]	56	4.6	506	–	44.2	–	–
